Assays:
[1] = Blood brain barrier penetration / pharmacokinetics of SMM-189 in mice; type: in vivo; settings: 6 mg/kg
Experimental: Analysis of the brain-to-blood ratios of SMM-189 were performed by Sai Life Sciences Limited (Telangana, India). All procedures of the study were in accordance with the guidelines provided by the Committee for the Purpose of Control and Supervision of Experiments on Animals (CPCSEA) as published in The Gazette of India, December 15, 1998. Prior approval of the Institutional Animal Ethics Committee (IAEC) was obtained before initiation of the study. In brief, 54 mice were weighed and divided as Group 1 (6 mg/kg, i.p.) and Group 2 (6 mg/kg, by oral (p.o.)). Animals in Group 1 and Group 2 were administered intraperitoneally and orally with SMM-189 solution formulation at 6 mg/kg in 5% Ethanol, 5% Cremophor and 90% Normal Saline, respectively. The blood samples were collected under light isoflurane anesthesia at 0.08, 0.25, 0.5, 1, 2, 4, 8, 12 and 24 h (i.p.) and 0.25, 0.5, 1, 2, 4, 6, 8, 12 and 24 h (p.o.) in labeled micro centrifuge tube containing K2EDTA as anticoagulant. After blood collection, plasma was harvested by centrifugation and stored at -70 °C until analysis. Immediately after collection of blood, brain samples were collected from set of three mice at each time point at 0.08, 0.25, 0.5, 1, 2, 4, 8, 12 and 24 h (Group 1; i.p.) and 0.25, 0.5, 1, 2, 4, 6, 8, 12 and 24 h (Group 2; p.o.). Brain samples were homogenized using ice-cold phosphate buffer saline (pH-7.4) in a ratio of 2 (buffer):1(brain); and homogenates were stored below − 70 ± 10 °C until analysis. Total homogenate volume was three times the brain weight. All samples were processed for analysis by protein precipitation using acetonitrile and analyzed with fit-for-purpose LC-MS/MS method (LLOQ = 1.02 ng/mL for plasma and 6.09 ng/g for brain).
Non-compartmental-analysis module in Phoenix WinNonlin® (Version 6.3) was used to assess the pharmacokinetic parameters. Maximum concentration (Cmax) and time to reach the maximum concentration (Tmax) were the observed values. The areas under the concentration time curve (AUClast and AUCinf) were calculated by linear trapezoidal rule. The terminal elimination rate constant, ke was determined by regression analysis of the linear terminal portion of the log plasma concentration-time curve. The terminal half-life (T1/2) was estimated as 0.693/ke.

[2] = Weekly body weights of AAV2/5-human WT Asyn rats; type: in vivo, rat; settings: low and high cohorts, 6 mg/kg i.p. daily, over 8 weeks, vs vehicle
Experimental: Sprague Dawley male rats (16–18 weeks of age, 400–525 g) were purchased from Charles River Laboratories and acclimated to Emory University animal facilities. Rats were pair housed in standard plexiglass cages under normal 12-hr light cycles and handled in accordance with protocols approved by the IACUC of Emory University in Atlanta, GA. Rats were administered unilateral injections of AAV2/5-human wild-type (WT) Asyn at titers of 2.9–4.3 × 10^11 vector genomes (vg)/mL (termed “low cohort”), which was previously shown to not induce nigral neurotoxicity. Thereby, generating a model with overexpression of human WT Asyn and Asyn-mediated neuroinflammation. One week after surgery, animals were randomly selected to receive daily systemic injections of either SMM-189 (intraperitoneal (i.p.), 6 mg/kg, n = 12) or vehicle (i.p., n = 12) and followed for 8 weeks (Figs. 1; n = 2 rats per group were removed due to poor nigral targeting). The dose of SMM-189 was based on a pharmacokinetic study in mice determining therapeutic brain-blood ratios as described below. […]
An additional cohort of rats (termed “high cohort”) was evaluated to determine effects of SMM-189 on immune cell populations in the brain, resident or infiltrating, and the periphery as measured by flow cytometry (Fig. 1). […] Brains were collected at endpoints, and brain immune cells isolated and evaluated using multicolor flow cytometry. […]

Question: Which Cmax ([1]; brain, i.p.) does the source give for `O=C(c1ccccc1)c1cc(O)c(-c2cc(Cl)cc(Cl)c2)c(O)c1` [SMM-189] here?
Answer: 204.64 ng/mL

Question: What about the Tmax ([1]; brain, i.p.) of the same molecule?
Answer: 30 min

Question: And the Cmax ([1]; brain, p.o.)?
Answer: 70.34 ng/mL

Question: And the Tmax ([1]; brain, p.o.)?
Answer: 15 min

Question: And the “Brain/plasma ratio (Cmax)” value ([1]; i.p.)?
Answer: 0.74

Question: What about the “Brain/plasma ratio (Cmax)” value ([1]; p.o.) of the same molecule?
Answer: 1.63

Question: What about the Cmax ([1]; plasma, i.p.) of the same molecule?
Answer: 277.07 ng/mL

Question: What about the Tmax ([1]; plasma, i.p.) of the same molecule?
Answer: 30 min

Question: And the Cmax ([1]; plasma, p.o.)?
Answer: 43.15 ng/mL

Question: What about the Tmax ([1]; plasma, p.o.) of the same molecule?
Answer: 15 min

Question: What about the “Rats weight, difference between treatment groups” value [2] of the same molecule?
Answer: no significant differences

Reference: article PMC11438102, “Modulation of cannabinoid receptor 2 alters neuroinflammation and reduces formation of alpha-synuclein aggregates in a rat model of nigral synucleinopathy” (Journal of Neuroinflammation, 2024)
